Source: the NIST ThermoML archive (doi:10.1021/je020125e)

Conditions: 101.33 kPa, Liquid, Hot wire method

CCC(C)CC [3-methylpentane]
Conditions | thermal conductivity [W/m/K] | thermal diffusivity [m2/s]
256.68 K | 0.1196 | –
257 K | 0.1195 | –
257.43 K | 0.1193 | –
257.89 K | – | 8.31e-08
258.67 K | – | 8.27e-08
259.75 K | – | 8.22e-08
276.71 K | 0.1129 | –
277.02 K | 0.1128 | –
277.46 K | 0.1126 | –
277.98 K | – | 7.74e-08
278.74 K | – | 7.71e-08
279.82 K | – | 7.67e-08
296.39 K | 0.1066 | –
296.74 K | 0.1065 | –
297.2 K | 0.1063 | –
297.69 K | – | 7.21e-08
298.55 K | – | 7.2e-08
299.63 K | – | 7.16e-08
314.22 K | 0.1013 | –
314.59 K | 0.1012 | –
315.08 K | 0.101 | –
315.57 K | – | 6.8e-08
316.44 K | – | 6.8e-08
317.58 K | – | 6.75e-08
328.36 K | 0.09736 | –
328.75 K | 0.09723 | –
329.26 K | 0.09705 | –
329.73 K | – | 6.51e-08
330.64 K | – | 6.49e-08
331.82 K | – | 6.44e-08

CC(C)C(C)C [2,3-dimethylbutane]
Conditions | thermal conductivity [W/m/K] | thermal diffusivity [m2/s]
256.81 K | 0.1128 | –
257.19 K | 0.1127 | –
257.69 K | 0.1125 | –
258.09 K | – | 7.87e-08
258.98 K | – | 7.85e-08
260.13 K | – | 7.79e-08
277.98 K | 0.1061 | –
278.38 K | 0.1059 | –
278.91 K | 0.1057 | –
279.29 K | – | 7.3e-08
280.19 K | – | 7.27e-08
281.39 K | – | 7.23e-08
297.63 K | 0.1 | –
298.06 K | 0.0999 | –
298.6 K | 0.09972 | –
298.95 K | – | 6.8e-08
299.9 K | – | 6.77e-08
301.09 K | – | 6.74e-08
318.11 K | 0.09429 | –
318.45 K | 0.09416 | –
319.06 K | 0.09398 | –
319.63 K | – | 6.39e-08
320.36 K | – | 6.35e-08
321.67 K | – | 6.31e-08
336.29 K | 0.08957 | –
336.65 K | 0.08944 | –
337.3 K | 0.08925 | –
337.85 K | – | 6.04e-08
338.62 K | – | 6.01e-08
339.96 K | – | 5.97e-08

CCC(CC)CC [3-ethylpentane]
Conditions | thermal conductivity [W/m/K] | thermal diffusivity [m2/s]
257.28 K | 0.1253 | –
257.54 K | 0.1252 | –
257.83 K | 0.1251 | –
258.36 K | – | 8.28e-08
259.11 K | – | 8.26e-08
259.89 K | – | 8.25e-08
277.62 K | 0.119 | –
277.89 K | 0.1188 | –
278.19 K | 0.1187 | –
278.75 K | – | 7.78e-08
279.49 K | – | 7.73e-08
280.3 K | – | 7.72e-08
296.33 K | 0.1132 | –
296.62 K | 0.113 | –
296.78 K | 0.113 | –
297.48 K | – | 7.29e-08
298.26 K | – | 7.28e-08
298.69 K | – | 7.28e-08
313.96 K | 0.1081 | –
314.27 K | 0.1079 | –
314.58 K | 0.1078 | –
315.16 K | – | 6.95e-08
315.99 K | – | 6.93e-08
316.82 K | – | 6.9e-08
331.22 K | 0.1032 | –
331.29 K | 0.1029 | –
331.56 K | 0.1031 | –
332.45 K | – | 6.59e-08
333.34 K | – | 6.59e-08
334.2 K | – | 6.55e-08

CCCCC(C)CC (stereo not given) [3-methylheptane]
Conditions | thermal conductivity [W/m/K] | thermal diffusivity [m2/s]
259.08 K | 0.1255 | –
259.32 K | 0.1253 | –
259.58 K | 0.1252 | –
260.01 K | – | 8.29e-08
260.65 K | – | 8.28e-08
261.32 K | – | 8.27e-08
277.99 K | 0.1204 | –
278.23 K | 0.1203 | –
278.37 K | 0.1202 | –
278.95 K | – | 7.83e-08
279.57 K | – | 7.83e-08
279.93 K | – | 7.84e-08
297.36 K | 0.115 | –
297.63 K | 0.115 | –
297.91 K | 0.115 | –
298.32 K | – | 7.41e-08
299.02 K | – | 7.44e-08
299.76 K | – | 7.47e-08
315.56 K | 0.1101 | –
315.84 K | 0.1101 | –
316.12 K | 0.1099 | –
316.52 K | – | 6.98e-08
317.22 K | – | 7e-08
317.93 K | – | 6.98e-08
331.93 K | 0.1058 | –
332.21 K | 0.1057 | –
332.51 K | 0.1056 | –
332.93 K | – | 6.7e-08
333.64 K | – | 6.7e-08
334.38 K | – | 6.69e-08

CC(C)C(C)(C)C [2,2,3-trimethylbutane]
Conditions | thermal conductivity [W/m/K] | thermal diffusivity [m2/s]
257.27 K | 0.1051 | –
257.53 K | 0.105 | –
257.81 K | 0.1049 | –
258.21 K | – | 7.28e-08
258.88 K | – | 7.27e-08
259.58 K | – | 7.26e-08
277.62 K | 0.1001 | –
277.9 K | 0.0999 | –
278.17 K | 0.0998 | –
278.57 K | – | 6.81e-08
279.26 K | – | 6.79e-08
279.93 K | – | 6.77e-08
296.29 K | 0.09516 | –
296.58 K | 0.09508 | –
296.87 K | 0.09497 | –
297.2 K | – | 6.29e-08
297.91 K | – | 6.32e-08
298.61 K | – | 6.3e-08
313.91 K | 0.09108 | –
314.21 K | 0.09098 | –
314.52 K | 0.09085 | –
314.85 K | – | 6e-08
315.57 K | – | 6e-08
316.3 K | – | 5.98e-08
331.18 K | 0.08718 | –
331.48 K | 0.08706 | –
331.79 K | 0.0869 | –
332.15 K | – | 5.72e-08
332.87 K | – | 5.7e-08
333.59 K | – | 5.66e-08

CC(C)CC(C)C [2,4-dimethylpentane]
Conditions | thermal conductivity [W/m/K] | thermal diffusivity [m2/s]
256.59 K | 0.1138 | –
256.99 K | 0.1135 | –
257.3 K | 0.1133 | –
257.56 K | – | 7.9e-08
258.58 K | – | 7.84e-08
259.37 K | – | 7.76e-08
276.3 K | 0.1082 | –
276.69 K | 0.1079 | –
277.04 K | 0.1077 | –
277.29 K | – | 7.41e-08
278.27 K | – | 7.29e-08
279.16 K | – | 7.28e-08
296.19 K | 0.1025 | –
296.63 K | 0.1022 | –
296.97 K | 0.102 | –
297.18 K | – | 6.9e-08
298.25 K | – | 6.83e-08
299.08 K | – | 6.77e-08
316.55 K | 0.09692 | –
317.01 K | 0.09668 | –
317.37 K | 0.09645 | –
317.55 K | – | 6.43e-08
318.67 K | – | 6.39e-08
319.53 K | – | 6.32e-08
333.96 K | 0.0924 | –
334.43 K | 0.09213 | –
334.81 K | 0.09197 | –
334.93 K | – | 5.99e-08
336.06 K | – | 5.98e-08
336.97 K | – | 5.96e-08
